Experimental data published in patent publication US20210078988A1, “MODULATORS OF INDOLEAMINE 2,3-DIOXYGENASE” (GLAXOSMITHKLINE INTELLECTUAL PROPERTY DEVELOPMENT LIMITED, priority 2017, published 2021).

Biological target: T1, indoleamine 2, 3-dioxygenase (IDO1) (Homo sapiens, UniProt P14902)
T1 construct: human peripheral blood mononuclear cells (PBMC) (PB003F; host or cells: human PBMC stimulated with IFN-gamma and LPS
Assay: PBMC IDO1 assay (kynurenine detection via mass spectrometry)
Format: cell-based
Details: human PBMC stimulated with IFN-γ and LPS, 2 days, kynurenine by mass spectrometry; read-out: IDO1 PBMC pIC50 (converted)
Procedure: Compounds of the present invention were tested via high-throughput cellular assays utilizing detection of kynurenine via mass spectrometry and cytotoxicity as end-points. For the mass spectrometry and cytotoxicity assays, human peripheral blood mononuclear cells (PBMC) (PB003F; AIICells®, Alameda, Calif.) were stimulated with human interferon-γ (IFN-γ) (Sigma-Aldrich Corporation, St. Louis, Mo.) and lipopolysaccharide from Salmonella minnesota (LPS) (Invivogen, San Diego, Calif.) to induce the expression of indoleamine 2, 3-dioxygenase (IDO1). Compounds with IDO1 inhibitory properties decreased the amount of kynurenine produced by the cells via the tryptophan catabolic pathway. Cellular toxicity due to the effect of compound treatment was measured using CellTiter-Glo® reagent (CTG) (Promega Corporation, Madison, Wis.), which is based on luminescent detection of ATP, an indicator of metabolically active cells.
In preparation for the assays, test compounds were serially diluted 3-fold in DMSO from a typical top concentration of 5 mM and plated at 0.5 μL in 384-well, polystyrene, clear bottom, tissue culture treated plates with lids (Greiner Bio-One, Kremsmunster, Austria) to generate 11-point dose response curves. Low control wells (0% kynurenine or 100% cytotoxicity) contained either 0.5 μL of DMSO in the presence of unstimulated (-IFN-γ/-LPS) PBMCs for the mass spectrometry assay or 0.5 μL of DMSO in the absence of cells for the cytotoxicity assay, and high control wells (100% kynurenine or 0% cytotoxicity) contained 0.5 μL of DMSO in the presence of stimulated (+IFN-γ/+LPS) PBMCs for both the mass spectrometry and cytotoxicity assays.
Frozen stocks of PBMCs were washed and recovered in RPMI 1640 medium (Thermo Fisher Scientific, Inc., Waltham, Mass.) supplemented with 10% v/v heat-inactivated fetal bovine serum (FBS) (Thermo Fisher Scientific, Inc., Waltham, Mass.), and 1× penicillin-streptomycin antibiotic solution (Thermo Fisher Scientific, Inc., Waltham, Mass.). The cells were diluted to 1,000,000 cells/mL in the supplemented RPMI 1640 medium. 50 μL of either the cell suspension, for the mass spectrometry assay, or medium alone, for the cytotoxicity assay, were added to the low control wells, on the previously prepared 384-well compound plates, resulting in 50,000 cells/well or 0 cells/well respectively. IFN-γ and LPS were added to the remaining cell suspension at final concentrations of 100 ng/ml and 50 ng/ml respectively, and 50 μL of the stimulated cells were added to all remaining wells on the 384-well compound plates. The plates, with lids, were then placed in a 37° C., 5% CO2 humidified incubator for 2 days.
Following incubation, the 384-well plates were removed from the incubator and allowed to equilibrate to room temperature for 30 minutes. For the cytotoxicity assay, CellTiter-Glo® was prepared according to the manufacturer's instructions, and 40 μL were added to each plate well. After a twenty minute incubation at room temperature, luminescence was read on an EnVision® Multilabel Reader (PerkinElmer Inc., Waltham, Mass.). For the mass spectrometry assay, 10 μL of supernatant from each well of the compound-treated plates were added to 40 μL of acetonitrile, containing 10 μM of an internal standard for normalization, in 384-well, polypropylene, V-bottom plates (Greiner Bio-One, Kremsmunster, Austria) to extract the organic analytes. Following centrifugation at 2000 rpm for 10 minutes, 10 μL from each well of the acetonitrile extraction plates were added to 90 μL of sterile, distilled H2O in 384-well, polypropylene, V-bottom plates for analysis of kynurenine and the internal standard on the RapidFire 300 (Agilent Technologies, Santa Clara, Calif.) and 4000 QTRAP MS (SCIEX, Framingham, Mass.). MS data were integrated using Agilent Technologies' RapidFire Integrator software, and data were normalized for analysis as a ratio of kynurenine to the internal standard. […]

T1 sequence (P14902 whole entry): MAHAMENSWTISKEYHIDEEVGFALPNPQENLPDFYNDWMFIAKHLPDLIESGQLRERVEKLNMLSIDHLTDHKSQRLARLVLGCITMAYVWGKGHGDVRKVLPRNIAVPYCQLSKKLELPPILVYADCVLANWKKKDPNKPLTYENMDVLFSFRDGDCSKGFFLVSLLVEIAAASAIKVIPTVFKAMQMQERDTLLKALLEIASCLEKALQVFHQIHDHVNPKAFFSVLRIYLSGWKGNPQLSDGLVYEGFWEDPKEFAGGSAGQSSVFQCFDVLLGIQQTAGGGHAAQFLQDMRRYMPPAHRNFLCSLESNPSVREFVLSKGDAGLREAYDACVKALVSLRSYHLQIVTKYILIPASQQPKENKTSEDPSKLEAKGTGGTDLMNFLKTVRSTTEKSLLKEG

| Structure (SMILES) | IC50 |
| --- | --- |
| COc1ccc(C(CC2CCN(C(=O)OC(C)(C)C)CC2)NC(=O)c2ccc(F)cc2)cn1 (stereo not shown) [Example 54, tert-butyl 4-(2-(4-fluorobenzamido)-2-(6-methoxypyridin-3-yl)ethyl)piperidine-1-carboxylate] | 0.0126 µM |
| COc1ccc(C(CC2CCN(C(=O)OC(C)C)CC2)NC(=O)c2ccc(F)cc2)cn1 (stereo not shown) [Example 55, isopropyl 4-(2-(4-fluorobenzamido)-2-(6-methoxypyridin-3-yl)ethyl)piperidine-1-carboxylate] | 0.0126 µM |
| COc1ccc(C(CC2CCN(C(=O)OCC(C)C)CC2)NC(=O)c2ccc(F)cc2)cn1 (stereo not shown) [Example 56, isobutyl 4-(2-(4-fluorobenzamido)-2-(6-methoxypyridin-3-yl)ethyl)piperidine-1-carboxylate] | 0.0126 µM |
| CC(C)(C)OC(=O)N1CCC(CC(NC(=O)c2ccc(F)s2)c2ccccc2)CC1 (stereo not shown) [Example 58, tert-butyl 4-(2-(5-fluorothiophene-2-carboxamido)-2-phenylethyl)piperidine-1-carboxylate] | 0.0126 µM |
| Cc1ccc(C(=O)NC(CC2CCN(C(=O)OC(C)(C)C)CC2)C2CCCC2)s1 (stereo not shown) [Example 59, tert-butyl 4-(2-cyclopentyl-2-(5-methylthiophene-2-carboxamido)ethyl)piperidine-1-carboxylate] | 0.0126 µM |
| CCc1ccc(C(=O)NC(CC(C)C)CC2CCN(C(=O)OC(C)(C)C)CC2)s1 (stereo not shown) [Example 60, tert-butyl 4-(2-(5-ethylthiophene-2-carboxamido)-4-methylpentyl)piperidine-1-carboxylate] | 0.0126 µM |
| CC(C)(C)OC(=O)N1CCC(C[C@H](NC(=O)c2ccc(Br)cc2)C2CC2)CC1 [Example 63, (S)-tert-butyl 4-(2-(4-bromobenzamido)-2-cyclopropylethyl)piperidine-1-carboxylate] | 0.0126 µM |
| CC(C)(C)OC(=O)N1CCC(CC(NC(=O)c2ccc(Cl)s2)C2CCCCC2)CC1 (stereo not shown) [Example 64, tert-butyl 4-(2-(5-chlorothiophene-2-carboxamido)-2-cyclohexylethyl)piperidine-1-carboxylate] | 0.0126 µM |
| COc1ccc([C@@H](CC2CCN(C(=O)OC(C)(C)C)CC2)NC(=O)c2ccc(Cl)s2)cn1 [Example 70, (R)-tert-butyl 4-(2-(5-chlorothiophene-2-carboxamido)-2-(6-methoxypyridin-3-yl)ethyl)piperidine-1-carboxylate] | 0.0158 µM |
| CN(C)c1nnc(C(CC2CCN(C(=O)OC(C)(C)C)CC2)NC(=O)c2ccc(Cl)s2)o1 (stereo not shown) [Example 73, tert-butyl 4-(2-(5-chlorothiophene-2-carboxamido)-2-(5-(dimethylamino)-1,3,4-oxadiazol-2-yl)ethyl)piperidine-1-carboxylate] | 0.0158 µM |
| CC(C)C(CC1CCN(C(=O)OC(C)(C)C)CC1)NC(=O)c1ccc(Br)cc1 (stereo not shown) [Example 74, tert-butyl 4-(2-(4-bromobenzamido)-3-methylbutyl)piperidine-1-carboxylate] | 0.0158 µM |
| CC(C)CC(CC1CCN(C(=O)OC(C)(C)C)CC1)NC(=O)c1ccc(Cl)cc1 (stereo not shown) [Example 75, tert-butyl 4-(2-(4-chlorobenzamido)-4-methylpentyl)piperidine-1-carboxylate] | 0.0158 µM |
| CC(C)CC(CC1CCN(C(=O)OC(C)(C)C)CC1)NC(=O)c1ccc(F)cc1 (stereo not shown) [Example 76, tert-butyl 4-(2-(4-fluorobenzamido)-4-methylpentyl)piperidine-1-carboxylate] | 0.0158 µM |
| CCc1ccc(C(=O)NC(CC2CCN(C(=O)OC(C)(C)C)CC2)C2CCCC2)s1 (stereo not shown) [Example 78, tert-butyl 4-(2-cyclopentyl-2-(5-ethylthiophene-2-carboxamido)ethyl)piperidine-1-carboxylate] | 0.0158 µM |
| CC(C)CC(CC1CCN(C(=O)OC(C)(C)C)CC1)NC(=O)c1ccc(F)s1 (stereo not shown) [Example 79, tert-butyl 4-(2-(5-fluorothiophene-2-carboxamido)-4-methylpentyl)piperidine-1-carboxylate] | 0.0158 µM |
| Cc1ccc(C(=O)NC(CC2CCN(C(=O)OC(C)(C)C)CC2)C2CCCCC2)s1 (stereo not shown) [Example 80, tert-butyl 4-(2-cyclohexyl-2-(5-methylthiophene-2-carboxamido)ethyl)piperidine-1-carboxylate] | 0.0158 µM |

Further lines, results first:

| IC50 | Structure (SMILES) |
| --- | --- |
| 0.0126 µM | CC(C)(C)OC(=O)N1CCC(CC(NC(=O)c2ccc(Br)cc2)c2ccccc2)CC1 (stereo not shown) [Example 57, tert-butyl 4-(2-(4-bromobenzamido)-2-phenylethyl)piperidine-1-carboxylate] |
| 0.0126 µM | O=C(NC(CC1CCN(C(=O)OC2CCC2)CC1)c1ccccc1)c1ccc(Cl)cc1 (stereo not shown) [Example 61, cyclobutyl 4-(2-(4-chlorobenzamido)-2-phenylethyl)piperidine-1-carboxylate] |
| 0.0126 µM | C#CCOC(=O)N1CCC(CC(NC(=O)c2ccc(Cl)cc2)c2ccccc2)CC1 (stereo not shown) [Example 62, prop-2-yn-1-yl 4-(2-(4-chlorobenzamido)-2-phenylethyl)piperidine-1-carboxylate] |
| 0.0126 µM | CC(C)(C)OC(=O)N1CCC(C[C@H](NC(=O)c2ccc(Cl)cc2)c2ccccc2)CC1 [Example 65, (S)-tert-butyl 4-(2-(4-chlorobenzamido)-2-phenylethyl)piperidine-1-carboxylate] |
| 0.0126 µM | CCOC(=O)N1CCC(C[C@H](NC(=O)c2ccc(CC)s2)c2ccccc2)CC1 [Example 66, (S)-ethyl 4-(2-(5-ethylthiophene-2-carboxamido)-2-phenylethyl)piperidine-1-carboxylate] |
| 0.0126 µM | CC(C)CC(CC1CCN(C(=O)Oc2ccccc2)CC1)NC(=O)c1ccc(Cl)cc1 (stereo not shown) [Example 67, phenyl 4-(2-(4-chlorobenzamido)-4-methylpentyl)piperidine-1-carboxylate] |
| 0.0158 µM | CC(C)(C)OC(=O)N1CCC(CC(NC(=O)c2ccc(Cl)cc2)c2ccccc2)CC1 (stereo not shown) [Example 68, tert-butyl 4-(2-(4-chlorobenzamido)-2-phenylethyl)piperidine-1-carboxylate] |
| 0.0158 µM | Cc1ccc(C(=O)NC(CC2CCN(C(=O)OC(C)(C)C)CC2)c2ccccc2)s1 (stereo not shown) [Example 69, tert-butyl 4-(2-(5-methylthiophene-2-carboxamido)-2-phenylethyl)piperidine-1-carboxylate] |
| 0.0158 µM | CC(C)(C)OC(=O)N1CCC(CC(NC(=O)c2ccc(Br)c(F)c2)c2ccccc2)CC1 (stereo not shown) [Example 71, tert-butyl 4-(2-(4-bromo-3-fluorobenzamido)-2-phenylethyl)piperidine-1-carboxylate] |
| 0.0158 µM | CC(C)(C)OC(=O)N1CCC(CC(NC(=O)c2ccc(I)cc2)c2ccccc2)CC1 (stereo not shown) [Example 72, tert-butyl 4-(2-(4-iodobenzamido)-2-phenylethyl)piperidine-1-carboxylate] |
| 0.0158 µM | O=C(NC(CC1CCN(C(=O)OC2CC2)CC1)c1ccccc1)c1ccc(Cl)cc1 (stereo not shown) [Example 77, cyclopropyl 4-(2-(4-chlorobenzamido)-2-phenylethyl)piperidine-1-carboxylate] |
| 0.0158 µM | CCOC(=O)N1CCC(C[C@H](NC(=O)c2ccc(Cl)cc2)c2ccccc2)CC1 [Example 81, (S)-ethyl 4-(2-(4-chlorobenzamido)-2-phenylethyl)piperidine-1-carboxylate] |
